Experimental data from patent US20180153995A1, “USE OF ANTIMICROBIAL POLYMERS FOR RE-SENSITIZATION OF MICROORGANISMS UPON EMERGENCE OF RESISTANCE TO ANTI-MICROBIAL AGENTS” (Technion Research & Development Foundation Limited, priority 2008, published 2018).
Where two headings read alike, the source gives them in different places.

Assays:
MRSA 15903 = experiment: microbe, parasite or virus in culture; assay type: cell-based, Staphylococcus aureus
Procedure, shortened: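 Values are FIC indexes, summing each agent's MIC in combination divided by its MIC alone, for MRSA 15903. Interpretation: <0.5 clear re-sensitization, 0.5 to 4 marginal or none, >4 antagonistic.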

S. aureus 43300 = experiment: Antibiotic MIC by microdilution with or without sub-MIC polymer; assay type: cell-based, Staphylococcus aureus; conditions: no polymer (None)
S. aureus 15877 = experiment: as above; assay type: cell-based, Staphylococcus aureus
S. aureus 17314 = experiment: as above; assay type: cell-based, Staphylococcus aureus; conditions: S. aureus 17314
E. coli 14384 = experiment: as above; assay type: cell-based, Escherichia coli; conditions: E. coli 14384
Procedure, shortened: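 Bacterial suspension (10^5 per ml) was added to medium carrying serially diluted antibiotic and the lipopeptide […]. After 24 hours at 37° C, proliferation was measured at 620 nm. The MIC was taken from this optical density read-out.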

E. coli 16327 = experiment: microbe, parasite or virus in culture
E. coli 16329 = assay type: cell-based, Escherichia coli; conditions: E. coli U-16329
Procedure, shortened: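 Bacterial suspensions (100 μl) were added to 100 μl of culture medium carrying 2-fold serially diluted antibiotic together with a fraction of the polymer's MIC, or to plain medium as control. Plates were incubated 24 hours at 37° C, and proliferation was read at 620 nm against calibration standards. Starting inoculum was 10^5 bacteria per ml.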

E. coli 14182 = experiment: Antibiotic MIC by microdilution with or without sub-MIC polymer; assay type: cell-based, Escherichia coli
S. maltophila 748 = experiment: as above; assay type: cell-based, Stenotrophomonas maltophila
[1] = system: E. coli K-12 efflux knockout mutant; assay type: cell-based, Escherichia coli; conditions: E. coli AG100A (efflux−)
Procedure, shortened: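 Broth microdilution, inocula 10^5 bacteria/ml, 24 h at 37 °C. Growth read as OD620 against calibration standards.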

[2] = system: E. coli K-12 resistant wild type; assay type: cell-based, Escherichia coli; conditions: E. coli AG100 (w.t.)
[3] = +½ MIC (3.12 μM) C14(9-ene)KKNC12KNH2
[4] = polymer at ¼ of its MIC (Table 16)
[5] = polymer at ½ of its MIC (Table 16)
[6] = polymer at ⅓ of its MIC (Table 16)

CN(C)[C@@H]1C(O)=C(C(N)=O)C(=O)[C@@]2(O)C(O)=C3C(=O)c4c(O)cccc4[C@@](C)(O)[C@H]3C[C@@H]12 [Tetracycline, tetracycline]
MIC (MRSA 15903; MRSA 15903, +¼ polymer MIC (1.6 μM) NC12(KNC12K)2NH2): 0.5 µg/mL
MIC (MRSA 15903; MRSA 15903, +½ polymer MIC (3.1 μM) NC12(KNC12K)2NH2): 0.004 µg/mL
MIC (MRSA 15903; MRSA 15903, +⅓ polymer MIC (2.1 μM) NC12(KNC12K)2NH2): 0.25 µg/mL
MIC, ¼ + MIC OAK (MRSA 15903; MRSA 15903, with C12K(KNC10K)3NH2 (SEQ ID NO: 10) at ¼ of its MIC): 1 µg/mL
MIC, ½ + MIC OAK (MRSA 15903; MRSA 15903, with C12K(KNC10K)3NH2 (SEQ ID NO: 10) at ½ of its MIC): 0.25 µg/mL
MIC, ⅓ + MIC OAK (MRSA 15903; MRSA 15903, with C12K(KNC10K)3NH2 (SEQ ID NO: 10) at ⅓ of its MIC): 1 µg/mL
MIC (MRSA 15903; S. aureus CI-15903, +polymer (¼ MIC) C12(5-ene)KKNC12KNH2): 0.5 µg/mL
MIC (MRSA 15903; S. aureus CI-15903, +polymer (½ MIC) C12(5-ene)KKNC12KNH2): 0.06 µg/mL
MIC (MRSA 15903; S. aureus CI-15903, +polymer (⅓ MIC) C12(5-ene)KKNC12KNH2): 0.1 µg/mL
MIC (MRSA 15903; Staphylococcus aureus, MRSA, 24 h, MRSA 15903, antibiotic alone (Table 22), read-out: MIC, Alone): 1 µg/mL
MIC (MRSA 15903; Staphylococcus aureus, MRSA, 24 h, MRSA 15903, antibiotic alone, read-out: MIC): 0.5 µg/mL
MIC (MRSA 15903; Staphylococcus aureus, MRSA, 24 h, S. aureus CI-15903, alone, read-out: MIC): 0.5 µg/mL
Antibiotic MIC (S. aureus 43300; Table 8): 0.25 µg/mL
Antibiotic MIC (S. aureus 43300; Table 9): 0.25 µg/mL
Antibiotic MIC (S. aureus 43300; Table 10): 0.25 µg/mL
Antibiotic MIC (S. aureus 43300; Table 11): 0.5 µg/mL
Antibiotic MIC (S. aureus 43300; Table 12): 0.5 µg/mL
Antibiotic MIC (S. aureus 15877; +¼ MIC (1.6 μM) C12(5-ene)KKNC12KNH2): 1 µg/mL
Antibiotic MIC (S. aureus 15877; +½ MIC (3.12 μM) C12(5-ene)KKNC12KNH2): 0.5 to 1 µg/mL
Antibiotic MIC (S. aureus 15877; +⅓ MIC (2.1 μM) C12(5-ene)KKNC12KNH2): 1 µg/mL
Antibiotic MIC (S. aureus 15877; no polymer (None), Table 8): 1 µg/mL
Antibiotic MIC (S. aureus 17314; +¼ MIC (1.6 μM) C12K(KNC12K)2NH2): 0.25 µg/mL
Antibiotic MIC (S. aureus 17314; +¼ MIC (1.6 μM) C12KKNC12KNH2): 0.25 to 0.5 µg/mL
Antibiotic MIC (S. aureus 17314; +¼ MIC (1.6 μM) C14(9-ene)KKNC12KNH2): 0.25 µg/mL
Antibiotic MIC (S. aureus 17314; +½ MIC (3.12 μM) C12K(KNC12K)2NH2): 0.25 µg/mL
Antibiotic MIC (S. aureus 17314; +½ MIC (3.12 μM) C12KKNC12KNH2): 0.25 to 0.5 µg/mL
Antibiotic MIC (S. aureus 17314; [3]): 0.25 µg/mL
Antibiotic MIC (S. aureus 17314; +⅓ MIC (2.1 μM) C12K(KNC12K)2NH2): 0.5 µg/mL
Antibiotic MIC (S. aureus 17314; +⅓ MIC (2.1 μM) C12KKNC12KNH2): 0.25 to 0.5 µg/mL
Antibiotic MIC (S. aureus 17314; +⅓ MIC (2.1 μM) C14(9-ene)KKNC12KNH2): 0.25 µg/mL
Antibiotic MIC (S. aureus 17314; no polymer (None), Table 9): 0.25 µg/mL
Antibiotic MIC (S. aureus 17314; no polymer (None), Table 10): 0.25 µg/mL
Antibiotic MIC (S. aureus 17314; no polymer (None), Table 11): 0.25 to 0.5 µg/mL
Antibiotic MIC (S. aureus 17314; no polymer (None), Table 12): 0.25 to 0.5 µg/mL
Antibiotic MIC (E. coli 14384; [3]): 32 µg/mL
Antibiotic MIC (E. coli 14384; +½ MIC C12K(NC8K)5NH2): 32 to 64 µg/mL
Antibiotic MIC in presence of C12K(NC8K)7NH2 (SEQ ID NO: 4), +½ MIC (E. coli 14384; polymer at ½ of its MIC): 64 µg/mL
Antibiotic MIC (E. coli 16327; E. coli 16327, +½ MIC (3.12 μM) C14(9-ene)KKNC12KNH2): 32 µg/mL
MIC, ½ + MIC OAK (E. coli 16327; E. coli U16327, with C12K(KNC10K)3NH2 (SEQ ID NO: 10) at ½ of its MIC): 64 µg/mL
Antibiotic MIC in presence of C12K(NC8K)7NH2 (SEQ ID NO: 4), +½ MIC (E. coli 16327; E. coli U-16327, polymer at ½ of its MIC): 32 µg/mL
Antibiotic MIC (E. coli 16329; +½ MIC C12K(NC8K)5NH2): 64 µg/mL
Antibiotic MIC in presence of C12K(NC8K)7NH2 (SEQ ID NO: 4), +½ MIC (E. coli 16329; polymer at ½ of its MIC): 32 to 64 µg/mL
Antibiotic MIC (E. coli 14182; +¼ MIC C12K(NC8K)5NH2): 32 µg/mL
Antibiotic MIC (E. coli 14182; +½ MIC C12K(NC8K)5NH2): 8 to 16 µg/mL
Antibiotic MIC (E. coli 14182; +⅓ MIC C12K(NC8K)5NH2): 32 µg/mL
Antibiotic MIC, None (E. coli 14182; antibiotic alone (Table 15)): 32 to 64 µg/mL
Antibiotic MIC (E. coli 14182; no polymer (None), Table 14): 32 to 64 µg/mL
Antibiotic MIC in presence of C12K(NC8K)7NH2 (SEQ ID NO: 4), +¼ MIC (E. coli 14182; polymer at ¼ of its MIC): 32 µg/mL
Antibiotic MIC in presence of C12K(NC8K)7NH2 (SEQ ID NO: 4), +½ MIC (E. coli 14182; polymer at ½ of its MIC): 8 to 16 µg/mL
Antibiotic MIC in presence of C12K(NC8K)7NH2 (SEQ ID NO: 4), +⅓ MIC (E. coli 14182; polymer at ⅓ of its MIC): 32 µg/mL
Antibiotic MIC (S. maltophila 748; +¼ MIC (1.6 μM) C12K(KNC12K)3NH2): 64 µg/mL
Antibiotic MIC (S. maltophila 748; +½ MIC (3.12 μM) C12K(KNC12K)3NH2): 32 µg/mL
Antibiotic MIC (S. maltophila 748; +⅓ MIC (2.1 μM) C12K(KNC12K)3NH2): 64 µg/mL
Antibiotic MIC, None ([1]; antibiotic alone (Table 16)): 0.5 µg/mL
Antibiotic MIC, None ([1]; antibiotic alone (Table 17)): 0.5 µg/mL
Antibiotic MIC in presence of C12K(NC8K)7NH2 (SEQ ID NO: 4), +¼ MIC [1, 4]: 0.5 µg/mL
Antibiotic MIC in presence of C12K(NC8K)7NH2 (SEQ ID NO: 4), +½ MIC [1, 5]: 0.25 to 0.5 µg/mL
Antibiotic MIC in presence of C12K(NC8K)7NH2 (SEQ ID NO: 4), +⅓ MIC [1, 6]: 0.5 µg/mL
Antibiotic MIC in presence of C12K(NC8K)7NH2 (SEQ ID NO: 4), +¼ MIC [2, 4]: 1 to 2 µg/mL
Antibiotic MIC in presence of C12K(NC8K)7NH2 (SEQ ID NO: 4), +½ MIC [2, 5]: 0.25 to 0.5 µg/mL
Antibiotic MIC in presence of C12K(NC8K)7NH2 (SEQ ID NO: 4), +⅓ MIC [2, 6]: 0.5 µg/mL
